Experimental findings from paper PMC6968383, “Design, synthesis, in vitro and in vivo evaluation of benzylpiperidine-linked 1,3-dimethylbenzimidazolinones as cholinesterase inhibitors against Alzheimer’s disease” (Journal of Enzyme Inhibition and Medicinal Chemistry, 2019) are described below.

Data set [1] deals with T1, AChE (EC 3.1.1.7) from human (Homo sapiens, UniProt P22303).
T1 construct: purchased Sigma-Aldrich
Put plainly: human AChE inhibition assay, Ellman's method. It is filed as biochemical. The following applies: for IC50: human AChE, mean ± SEM, read-out: huAChE IC50. How it is done:
; The inhibitory activities of the target compounds towards AChE (from Electrophorus electricus (electric eeAChE, Sigma-Aldrich) and horse serum BChE (eqBChE, Sigma-Aldrich) or human AChE – huAChE; human BuChE – huBuChE (huAChE, huBuChE, Sigma-Aldrich) were measured by Ellman’s method. In 96-well plates, a mixture of phosphate buffer (0.1 M, pH 8.0, […]), 5,5′-dithiobis-2-nitrobenzoic acid (DTNB, 60 µL), acetylcholinestrase or butyrylcholinesterase (20 µL, 5 IU/mL) and different concentration of the compound solution (30 µL) was pre-incubated for 5 min followed by the addition of the substrate (acetylthiocholine iodide or butyrylthiocholine iodide, 20 µL). Changes in absorbance were measured at 412 nm by using microplate reader (Thermo, Varioskan Flash 3001, USA). The measurement of each concentration for each compound was detected in triplicate. GraphPad Prism 6.0 (GraphPad Software, Inc., La Jolla, CA) was used for data processing. The inhibition curve was fitted by plotting percentage enzyme activity (100% for the reference) versus the logarithm of the concentration of tested compound. The half-maximal inhibitory concentration (IC50) values were calculated according to the inhibition curve and the data were shown in the layout of mean ± SEM by GraphPad Prism 6.0.

A further data set relates to PC-12 cells. Put plainly: In vitro cell toxicity on PC-12 cell line (MTT). It is filed as cell-based. The note with it: 10, 20, 30 and 50 µM, 24 h. An excerpt: We focussed on the cell toxicity of the synthesised compounds. Compounds 15b and 15j were selected as representative compounds for the evaluation of their potential cytotoxic effects.
Figure 4. (A) In vitro cell toxicity of 15b and 15j on PC-12 cell line. (B) In vitro hepatotoxicity of 15b and 15j on HepG2 cell line. Data were expressed as mean ± SD (n = 3).
(§1) PC12 cell and HepG2 cell (human hepatocellular liver carcinoma cell line purchased from Institute of Materia of Chinese Academy of Medical Science), were grown in DMEM supplemented with 10% FBS at 37 °C in a humidified atmosphere containing 5% CO2. For the experiments, cells (6 × 10^3 cells/well) were seeded in 96-well plate in complete medium. […]

For a further data set, the system named is HepG2 cells. The data set can be described thus: In vitro hepatotoxicity on HepG2 cell line (MTT). It is filed as cell-based. The following applies: 5, 15, 50 µM, 24 h, compared to donepezil. How it is done:
as §1

The next data set addresses T2, Aβ1–42 (Homo sapiens, UniProt P05067).
T2 construct: self-induced Aβ1–42 aggregation; purchased Anaspec Inc. AS-64129–05
The data set can be described thus: Inhibition of self-induced Aβ1–42 aggregation (thioflavin T). It is filed as biochemical. The following applies: under 50 µM, ThT fluorometric assay. As for the experimental part:
Compounds 15b and 15j were evaluated for their inhibitory capacity on self-induced Aβ1–42 aggregation based on a thioflavin T-based fluorometric assay. […]
Corresponding Authors: clarissa0710@163.com (Y. Chen); sunhaopeng@163.com (H. P.
1.1. Inhibition of self-induced Aβ1–42 aggregation
Inhibitory effect of the compounds on self -induced Aβ1–42 aggregation was determined through a thioflavin T (ThT)-(T3516, Sigma-Aldrich) binding assay.
Firstly, aliquots of 2 μL of Aβ 1–42 (AS-64129–05 Anaspec Inc.) containing 2 mg/mL HFIP (1,1,1,3,3,3-hexafluoro-2-propanol, 52517 (Sigma-Aldrich) were stocked in DMSO).
Then, they were diluted with 0.215M sodium phosphate buffer (pH 8.0) to the final concentration of 500 μM. Test compounds were dissolved in DMSO and then prepared at a concentration of 50 μM by the buffer. Resveratrol was used as a positive control. […]
Fluorescence intensity was read (excitation wavelength 450 nm, emission wavelength 485 nm) on a microplate reader (Thermo, Varioskan Flas h 3001, USA).
The calculation of the inhibitory rate of Aβ 1–42 self-induced aggregation was performed using the following equation: (1 -IFi/IFc) × 100 %. IFi and IFc were the fluorescence intensities measured in the presence and absence of inhibitors, respe ctively, after subtracting the background fluorescence of the 5mM ThT solution. Each compound was measured in triplicate. […]

For data set [2], the system named is scopolamine-induced cognition impairment in ICR mice. The data set can be described thus: Morris water maze test, scopolamine-induced cognition impairment. It is filed as in vivo. The following applies: oral 15 mg kg−1, scopolamine 1 mg kg−1 ip, probe trial on sixth day, mean ± SEM n = 6. As for the experimental part:
The test included 5 days of learning and memory training and a probe trial on the sixth day.
Scopolamine hydrobromide was supplied by Aladdin Reagents (H1507073, Shanghai, China).
Cognitive function was evaluated by the Morris water maze analysis-management system (SMART 3.0, Panlab, Madrid, Spain), according to the method previously described[30].The maze was placed in a lit room with visual cues at 25 °C. An escape platform (10 cm diameter) was located in the centre of one quadrant of the circular pool (120 cm diameter, 60 cm height) with a depth of 40 cm water. The behavioural study of each mouse included 5 days of learning and memory training and a probe trial on day 6. The animal starting positions faced to the pool wall, and were pseudorandomised for each trial. For the cognitive evaluation, each mouse was individually evaluated on both visible-platform (days 1–2) and hidden-platform (days 3–5) versions of the water maze. All mice received nonspatial pretraining during the first two training days, which prepared them for the subsequent spatial learning test. During the two days, mice were trained to find the platform that was labelled by a small flag (5 cm tall). The hidden platform version was used to determine the retention of memory to find the platform. During the hidden-platform training trials, the escape platform was placed 1 cm below the surface of the water. On each day, the animal was subjected to two trials, each of which lasted for 90 s. The time for the mouse to find the platform (a successful escape) was recorded. […] On the last day (day 6), the platform was removed from its location and the animals were given a probe trial in which they had 90 s to search for the platform. The time taken to reach the missing platform and the number of times the animals crossed the platform location were recorded.
Data for the time of escape latency, the trajectory travelled, and the number of platform location crossings were recorded by SMART 3.0, Panlab, Madrid, Spain and processed by GraphPad Prism 6.0.

T1 sequence (P22303 32-614): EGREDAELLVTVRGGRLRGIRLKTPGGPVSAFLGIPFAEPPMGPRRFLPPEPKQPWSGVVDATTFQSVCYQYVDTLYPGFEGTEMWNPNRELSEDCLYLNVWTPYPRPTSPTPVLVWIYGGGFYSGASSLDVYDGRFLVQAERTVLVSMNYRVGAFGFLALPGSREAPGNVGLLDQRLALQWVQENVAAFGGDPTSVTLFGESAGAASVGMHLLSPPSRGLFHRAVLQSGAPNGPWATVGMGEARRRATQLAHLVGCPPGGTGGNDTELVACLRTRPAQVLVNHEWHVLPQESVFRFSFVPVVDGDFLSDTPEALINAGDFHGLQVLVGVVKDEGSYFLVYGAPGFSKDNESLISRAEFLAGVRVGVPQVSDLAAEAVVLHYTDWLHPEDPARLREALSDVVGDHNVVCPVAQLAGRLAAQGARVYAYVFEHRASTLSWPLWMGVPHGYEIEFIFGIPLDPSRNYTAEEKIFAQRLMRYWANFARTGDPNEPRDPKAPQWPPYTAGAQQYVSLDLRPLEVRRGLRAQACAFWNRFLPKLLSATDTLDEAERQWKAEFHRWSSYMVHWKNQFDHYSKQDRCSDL
T2 sequence (P05067 672-713): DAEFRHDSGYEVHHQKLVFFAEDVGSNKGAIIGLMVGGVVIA

In the case of `Cc1ccccc1CN1CCC(CNS(=O)(=O)c2ccc3c(c2)n(C)c(=O)n3C)CC1` [Compound 15b, 1,3-dimethyl-N-((1–(2-methylbenzyl)piperidin-4-yl)methyl)-2-oxo-2,3-dihydro-1H-benzo[d]imidazole-5-sulphonamide], the concentration for half-maximal inhibition (IC50) in data set [1] was 1490 ± 430 nM. In addition, the “cytotoxicity to PC-12 cells” value in the data set with PC-12 cells is given as “no cytotoxicity”. The “toxicity on HepG2 cell viability” value with HepG2 cells is listed as “low toxicity on cell viability”. The “inhibition of self-induced Aβ1–42 aggregation” value against Aβ1–42 is “no inhibitory activities”. Also, in data set [2], the Distance to target is 252.32 ± 8.42 cm and the Latency to target was determined as 9.29 ± 0.31 s.
As for `Cn1c(=O)n(C)c2cc(S(=O)(=O)NCC3CCN(Cc4cccc(Br)c4)CC3)ccc21` [Compound 15j, N-((1–(3-bromobenzyl)piperidin-4-yl)methyl)-1,3-dimethyl-2-oxo-2,3-dihydro-1H-benzo[d]imidazole-5-sulphonamide], the “SI (selectivity index = AChE IC50/BChE IC50)” value in data set [1] (huAChE IC50 / huBChE IC50) amounted to 1.89. Further, in data set [1], the concentration for half-maximal inhibition (IC50) is 1250 ± 480 nM. In addition, the “cytotoxicity to PC-12 cells” value in the data set on PC-12 cells is “no cytotoxicity”. In addition, the “toxicity on HepG2 cell viability” value in the data set on HepG2 cells is recorded as “low toxicity on cell viability”. For the same compound, the “inhibition of self-induced Aβ1–42 aggregation” value against Aβ1–42 is given as “no inhibitory activities”. In data set [2], the Distance to target came out at 350.27 ± 16.59 cm and the Latency to target is recorded as 12.85 ± 0.72 s.
